The results in this text go back to PubChem BioAssay (NCI).

Where “and” joins values, the source holds several entries; their conditions need not be identical. Equal entries are not always repeated.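 The compound was tested at five concentrations on cells cultured in 96-well plates, with a 48-hour exposure period. GI50 marks 50% less growth. TGI denotes the concentration required for complete inhibition of growth.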

Common to all, as to assay: NCI-60 cell line screen, 48 h
The test system of assay [1] is A498 renal.
The test system of assay [2] is BT-549 breast.
Assay [3] deals with EKVX NSCLC.
For assay [4], the system named is HCT-15 colon.
In assay [5] the test system is MCF7 breast.
The subject of assay [6] is SK-MEL-5 melanoma.
Assay [7] deals with SK-OV-3 ovarian.
Assay [8] concerns SR leukemia.
Assay [9] relates to SW-620 colon.
Assay [10] relates to UACC-257 melanoma.

For `O=NN(CCCl)C(=O)NC1CCCCC1`, the TGI in assay [1] was 155 µM; in assay [2] it was 81.7 µM; in [3], 160 µM and 224 µM; in assay [4] it was 33.5 µM and 103 µM and 115 µM; in assay [5], 117 µM; in assay [6] it was 78.5 µM and 133 µM and 209 µM. For the same compound, the TGI in assay [7] is 162 µM and 232 µM; in assay [9], 45.9 µM and 108 µM and 98.7 µM; in [10], 73.8 µM and 127 µM and 82.4 µM. For the same compound, the GI50 in assay [3] was 92.3 µM; in [4], 16.8 µM and 54.7 µM; in assay [6], 23 µM and 78.4 µM; in assay [7] it was 43.1 µM and 149 µM; in assay [8], 9.14 µM; in assay [9], 18.3 µM and 44.1 µM. The GI50 in assay [10] was 23.7 µM.
As for `CCN(CC)CCOc1ccc2c(C)c(C(=O)OC)oc2c1C(=O)/C=C/c1ccc(OC)cc1`, the GI50 in assay [1] was 22.8 µM; in assay [2], 20.6 µM; in assay [3] it was 19.7 µM; in assay [4], 1.31 µM; in assay [5], 2.76 µM; in assay [6], 20.4 µM. For the same compound, the GI50 is 4.12 µM in assay [7], 0.565 µM in assay [8], 22.7 µM in assay [9] and 19.8 µM in assay [10]. Also, the TGI in assay [1] was 44.4 µM; in assay [2], 39.4 µM; in [3], 36.5 µM; in assay [4] it was 3.57 µM; in [5], over 22.7 µM; in assay [6] it was 37.2 µM. The TGI is 13.8 µM in assay [7], 2.95 µM in assay [8], 47.7 µM in assay [9] and 36.9 µM in [10].
Regarding `COc1cccc(C2C(C#N)=C(N)Oc3cc4c(cc32)OCO4)c1` (stereo unspecified), the GI50 in assay [1] was 0.0311 µM; in assay [2] it was 0.0874 µM; in [3], 0.28 µM; in [4] it was 0.0525 µM; in assay [5], 0.0351 µM; in assay [6], 0.0332 µM. Also, the GI50 in [7] is 0.0508 µM; in assay [8] it was 0.0291 µM; in assay [9], 0.0369 µM; in assay [10] it was 0.0471 µM. Further, the TGI in assay [1] was 3 µM; in assay [2], 5 µM; in assay [3], 58.8 µM; in [4] it was over 43.5 µM; in assay [5] it was 18.1 µM; in [6], 3.76 µM. The TGI in assay [7] is 4.71 µM; in assay [8], 27.8 µM; in [9], over 63.2 µM; in assay [10], 28.1 µM.
With `C[C@]12CCC3=NCCN3C1=CC[C@@H]1[C@@H]2CC[C@@]2(C)[C@H]1CC[C@]2(C)O`, the TGI in assay [1] was 77.6 µM; in [2] it was over 100 µM; in assay [3], over 100 µM; in assay [4], over 100 µM; in assay [5] it was over 100 µM; in assay [6] it was 35.6 µM. Also, the TGI in assay [7] was over 100 µM; in assay [8], over 100 µM; in assay [9], over 100 µM; in assay [10], 73.1 µM.
Regarding `N#CCCN(CCC#N)c1ccc(C=Nc2ccc(F)cc2)cc1`, the TGI in [1], in [2], in [3], in assay [4], in assay [5] and in [6] was over 100 µM in each case. For the same compound, the TGI in assay [7], in [8], in assay [9] and in assay [10] was over 100 µM in each case.
Consider `COc1ccc(/C=C\c2cc(OC)c(OC)c(OC)c2)c(NS(=O)(=O)c2ccc(C(C)(C)C)cc2)c1O`, for which the GI50 is 0.0241 µM in [1]; 0.467 µM in assay [2]; 0.706 µM in assay [3]; 0.234 µM in assay [4]; 0.133 µM in assay [5]; 0.345 µM in assay [6]. For the same compound, the GI50 is 1.42 µM in [7], 0.0453 µM in [8], 0.329 µM in [9] and 13.2 µM in assay [10]. Besides, the TGI in assay [1] turned out to be 0.169 µM; in [2], 5.22 µM; in assay [3] it was 26.3 µM; in assay [4] it was 16.2 µM; in [5] it was 15.7 µM; in assay [6], 1.83 µM. The TGI in assay [7] is 45.9 µM; in assay [8] it was over 100 µM; in assay [9], 23.5 µM; in [10], 32.1 µM.
With `C=C(Cl)[C@@](Cl)(CBr)CC[C@@H](Br)C(C)(C)Cl`, the TGI in assay [1] is 5.57 µM and 1.93 µM; in assay [2], 22.3 µM; in [3] it was 15.1 µM and 7 µM; in [4], 4.99 µM and 1.97 µM; in [5], 2.01 µM and 0.937 µM; in assay [6] it was > 100 µM and 21.3 µM. In addition, the TGI in [7] is 22.2 µM and 26.3 µM; in assay [8] it was > 100 µM and 79.4 µM; in assay [10], 6.2 µM and 1.83 µM. Moreover, the GI50 in assay [4] is 0.866 µM; in assay [5], 0.432 µM; in [6], 19.5 µM; in [7], 8 µM; in assay [8], 23.1 µM; in assay [9], 0.778 µM.
Turning to `NC(N)=N/N=C(/c1ccccc1)c1ccccc1F`, the GI50 in assay [1] was 2.28 µM; in assay [2] it was 5.11 µM; in assay [3], 6.89 µM; in [4], 1.98 µM; in [5], 0.327 µM; in assay [6], 0.911 µM. Further, the GI50 in [7] is 4.82 µM; in assay [8], 0.809 µM; in [9], 2.75 µM; in [10], 15.8 µM. Moreover, the TGI is 9.44 µM in [1]; 23.6 µM in assay [2]; 53 µM in assay [3]; 13.8 µM in [4]; 13.3 µM in assay [5]; 12.5 µM in assay [6]. The TGI is 37.9 µM in assay [7], over 100 µM in assay [8], 21.1 µM in assay [9] and 38.1 µM in assay [10].
Regarding `O=C(Oc1ccc2c(c1)CN(Cc1ccccc1)CO2)c1ccccc1`, the TGI in [1] was 31.7 µM; in assay [2], 34.1 µM; in assay [3], 33.4 µM; in [4], 36.2 µM; in [5], 32.7 µM; in [6], 31.1 µM. The TGI was found to be 34 µM in assay [7], 69.2 µM in assay [8], 56.4 µM in [9] and 29.5 µM in [10].
